“And” between values parts separate entries of the source, which are not always exact repeats. Equal entries are not always repeated.
What was measured:
[1] = Temp-ramp FT-IR determination of lateral lipid chain packing; format: physicochemical; details: FT-IR CH2 rocking region, 28 °C
Protocol: Fourier transform infrared spectroscopy (FT-IR) was applied to determine the molecular organization of the amphiphilic lipids. Spectra were recorded using an ATR-FTIR (PIKE, Madison, WI; Bruker, Ettlingen, Germany). The synthesized compounds were dried under low pressure over night, and then pressed onto a ZnSe ATR crystal mounted in a trough plate. […] Spectra were collected with a spectral resolution of 4 cm^−1 with 8 scans over the range of 3500–650 cm^−1. The FTIR spectra were analyzed by using MicroCal Origin 9.0 software.

[2] = Creaming stability (creaming index) of 30% fish oil-in-water emulsions; format: physicochemical; details: 30% fish oil-in-water emulsion, storage at 5 °C, 7 days
Protocol: (§1) The synthetic compounds were evaluated as emulsifiers for fish oil-in-water emulsions and compared to commercial DATEM. Emulsions consisting of 30.0% fish oil were prepared using 1.5 mL (0.1 M) of emulsifier solutions in phosphate buffer (pH 7.0). Coarse emulsions were first created by homogenization of lipid and aqueous phases (PRO250, PRO Scientific, Oxford, USA) at high speed for two minutes at room temperature. Further reduction particle size was achieved by use of a probe sonicator (Branson sonifier 250, Branson ultrasonics, Danbury, US) for a period of 3 min.
To examine their creaming stability, duplicate emulsions were transferred to clear, screw-capped 15 mL vials (diameter 1.8 cm) and stored at 5 °C. By aid of daily digital photographs, the phase separation in each emulsion was monitored over 7 days. The extent of creaming was characterized by the creaming index (CI) according to Equation (2), where HA is the height of the lower, aqueous phase, and HE is the total height of emulsion[30]).1 %CI=HA/HE×100

[3] = Lipid oxidation in fish oil-in-water emulsions (TBARS assay); details: relative to emulsions with commercial DATEM, after 7 days (1 week) of storage
Protocol: as §1
The ability of the new emulsifiers to inhibit lipid oxidation in emulsions was evaluated using Thiobarbituric acid-reactive species (TBARS) assay. TBARS were used to measure the formation of malondialdehyde, a major product of lipid oxidation, in emulsions after one week of storage. A solution of TCA-TBA-HCl was prepared by mixing 15 g of TCA, 375 mg TBA, 1.76 ml 12 N HCl, and 82.9 ml water. […] of this solution was mixed with 20 µl of the emulsion sample previously in 1 ml of distilled water. Thereafter, the mixture was heated at 100 °C for 15 min, cooled to room temperature within 10 min under a running tap water, and centrifuged at 2000×g for 15 min[22]. TBA formed colored complexes with the secondary oxidation products, which were detected in a UV-visible spectrophotometer (Cary 50Bio, Varian, Australia) at 532 nm. The relative degree of oxidation in each emulsion was calculated with respect to the degree of oxidation in emulsions with commercial DATEM, according to Equation (3), where AS is the absorbance of samples with added stabilizer, and A0 is the absorbance of samples with no added emulsifier. Measurements were taken on duplicate emulsion samples.2 Oxidation(%)=AS/AO×100

[4] = Critical micelle concentration by pyrene fluorescence method; format: physicochemical; details: in water
Protocol: Critical Micelle Concentration (CMC) values of the synthetic compounds were determined by pyrene fluorescence method[28] using a Varian Cary Eclipse Fluorescence spectrometer (Agilent Technology, California, USA). The respective solutions were prepared using water previously saturated with pyrene (1 µM final concentration) in different concentrations (0.000001, 0.00001, 0.0001, 0.001, 0.01, 0.1, 1, 2.5, 5, 10, 15, 20 mM). Emission spectra of pyrene were obtained by exciting the samples at 334 nm. The fluorescence intensity ratio of I1/I3 (I1 = 373 nm, I3 = 383 nm) was plotted against sample solution concentration. The concentration at which the first break occurs was referred as the CMC value of the compound in water. Measurements were determined in triplicate.

[5] = Langmuir isotherm of monolayer; format: physicochemical; details: aqueous subphase, neutral pH
Protocol: (§2) Langmuir-Blodgett studies was carried out for compound C14, being the ultimate compound with both surface active and antioxidant properties, according to the method of Correa et al.[29] with slight modications. Experiments were performed in aqueous solutions at neutral pH. Briefly, 20 µl of 2 mg/mL solution of C14 in chloroform:methanol (9:1, v/v) was applied to the aqueous phase and allowed to evaporate for a period of 20 min. Thereafter, the barriers were compressed at a constant rate of ~9 Å/ (chain min) until film collapsed. After stable conditions were attained, deposition of the corresponding film was carried out onto a hydrophilic mica support at a pressure just before film collapsed. The deposited monolayers on mica were left to air dry overnight. AFM images were acquired at ambient conditions by air tapping mode using a silicon tip on a micro cantilever (Olympus Inc., Japan) with a spring constant of 26 N/m and resonant frequency of 300 kHz. All measurements were performed in the center of the sample. Analyses were done in duplicates.

[6] = Atomic force microscopy of Langmuir-Blodgett films on mica; format: physicochemical; details: film transferred to mica at ~22 mN/m
Protocol: as §2

Row | SMILES | Lipid packing mode [1] | Creaming index (CI) [2] | Critical micelle concentration (CMC) [4] | melting point | Surface pressure at monolayer collapse [5] | Double-layer film thickness [6] | Monolayer film thickness [6] | Relative oxidation in emulsions (as TBARS) [3]
1 | CCCCCCCCCCCCCCCC(=O)OCC(O)COC(=O)C(CC(=O)O)OC(=O)/C=C/c1ccc(O)c(O)c1 (stereo not shown) [C16a] | Hexagonal | 0% | – | – | – | – | – | 39.04 ± 0.02%
2 | CCCCCCCCCCCCCC(=O)OCC(O)COC(=O)C(CC(=O)O)OC(=O)/C=C/c1ccc(O)c(O)c1 (stereo not shown) [C14a] | Hexagonal | 0% | – | – | – | – | – | 19.26 ± 0.05%
3 | CCCCCCCCCCCC(=O)OCC(O)COC(=O)C(CC(=O)O)OC(=O)/C=C/c1ccc(O)c(O)c1 (stereo not shown) [C12a] | Hexagonal | 0% | – | – | – | – | – | 25.72 ± 0.03%
4 | CCCCCCCC(=O)OCC(O)COC(=O)C(CC(=O)O)OC(=O)/C=C/c1ccc(OC)c(OC)c1 (stereo not shown) [C8] | Hexagonal | 15.1% | 10 mM | – | – | – | – | –

The next lines start with results.

Row | Lipid packing mode [1] | Creaming index (CI) [2] | Critical micelle concentration (CMC) [4] | melting point | Surface pressure at monolayer collapse [5] | Double-layer film thickness [6] | Monolayer film thickness [6] | SMILES | Relative oxidation in emulsions (as TBARS) [3]
5 | Orthorhombic | 37.2% | 0.01 mM | 38 °C | – | – | – | CCCCCCCCCCCCCCCCCC(=O)OCC(O)COC(=O)C(CC(=O)O)OC(=O)/C=C/c1ccc(OC)c(OC)c1 (stereo not shown) [C18] | –
6 | Hexagonal | 0% | – | – | 39 mN/m | 5.2 nm and 6.7 nm | 2.3 nm | CCCCCCCCCCCCCC(=O)OCC(O)COC(=O)C(CC(=O)O)OC(=O)/C=C/c1ccc(OC)c(OC)c1 (stereo not shown) [C14] | –
7 | Hexagonal | 0% | – | – | – | – | – | CCCCCCCCCCCC(=O)OCC(O)COC(=O)C(CC(=O)O)OC(=O)/C=C/c1ccc(OC)c(OC)c1 (stereo not shown) [C12] | –
8 | Hexagonal | 10.35% | 5 mM | – | – | – | – | CCCCCCCCCC(=O)OCC(O)COC(=O)C(CC(=O)O)OC(=O)/C=C/c1ccc(OC)c(OC)c1 (stereo not shown) [C10] | –
9 | Hexagonal | 0% | – | – | – | – | – | CCCCCCCCCCCCCCCC(=O)OCC(O)COC(=O)C(CC(=O)O)OC(=O)/C=C/c1ccc(OC)c(OC)c1 (stereo not shown) [C16] | –

From publication PMC5770433, “A new group of synthetic phenolic-containing amphiphilic molecules for multipurpose applications: Physico-chemical characterization and cell-toxicity study” (Scientific Reports, 2018)
